Where a name gives a salt, the structure may show the parent alone. Read-outs that look alike come from different tables or passages of the source.
How the values were obtained:
[1] = test system: DOPAC levels (3,4-dihydroxyphenylacetic acid) in the rat striatum; assay: In vivo neurochemistry: tissue content of DOPAC in rat striatum; parameters: species or system rat (male Sprague-Dawley); settings: 100 μmol/kg s.c., 60 min after administration, %-increase from control value
Method: The measurement of the tissue content of DOPAC is well established in the field of research since the 1960's. In short, male Sprague-Dawely rats are administered the test compound 60 minutes prior to decapitation. The brain is rapidly taken out and dissected. The striatum is rapidly frozen and subsequently quantitatively analysed with respect to its content of DOPAC by means of HPLC and electrochemical detection. The number of animals used for each test compound/vehicle is 4/group.
Male Sprague-Dawley rats weighing 220-320 g are used throughout the experiments. Sixty (60) minutes following administration of the test substance, the rats are decapitated. Directly after decapitation the brain is removed from the skull and put on a glass petri bowl filled with ice. The limbic system (containing the nucleus accumbens—both the core and shell, most parts of the olfactory tubercle and ventral pallidum) is dissected using two thin, angled tweezers and put directly on foil on dry ice (carbon dioxide −78° C.). The striatum and cortex are then dissected and also put on dry ice. The time from decapitation until the last tissue is dissected varies from four to six minutes. The tissue is weighed using a Sartorius BP3105 connected to a computer and packed in labelled tin foil, then stored in an −80° C. freezer. Great care is taken in order to keep the tissue frozen until the time of neurochemical analysis. Each brain part is subsequently analyzed with respect to its content of monoamines and their metabolites.
The monoamine transmitter substances (NE (norepinephrine), DA (dopamine), 5-HT (serotonin)) as well as their amine (NM (normethanephrine), 3-MT (3-methoxytyramine)) and acid (DOPAC (3,4-dihydroxyphenylacetic acid), 5-HIAA (5-hydroxyindoleacetic acid), HVA (homovanillic acid)) metabolites are quantified in brain tissue homogenates by HPLC separations and electrochemical detection.
The analytical method is based on two chromatographic separations dedicated for amines or acids. Two chromatographic systems share a common auto injector with a 10-port valve and two sample loops for simultaneous injection on the two systems. Both systems are equipped with a reverse phase column (Luna C18(2), dp 3 μm, 50*2 mm i.d., Phenomenex) and electrochemical detection is accomplished at two potentials on glassy carbon electrodes (MF-1000, Bioanalytical Systems, Inc.). The column effluent is passed via a T-connection to the detection cell or to a waste outlet. This is accomplished by two solenoid valves, which block either the waste or detector outlet. By preventing the chromatographic front from reaching the detector, better detection conditions are achieved. The aqueous mobile phase (0.4 ml/min) for the acid system contains citric acid 14 mM, sodium citrate 10 mM, MeOH 15% (v/v) and EDTA 0.1 mM. Detection potentials relative to Ag/AgCl reference are 0.45 and 0.60V. The aqueous ion pairing mobile phase (0.5 ml/min) for the amine system contains citric acid 5 mM, sodium citrate 10 mM, MeOH 9% (v/v), MeCN 10.5% (v/v), decane sulfonic acid 0.45 mM, and EDTA 0.1 mM. Detection potentials relative to Ag/AgCl reference are 0.45 and 0.65V.

[2] = test system: DOPAC levels (3,4-dihydroxyphenylacetic acid) in the rat striatum; settings: 100 μmol/kg s.c., data taken from Table 2 in Ref 1 (J. Med. Chem. 1994, 37, 2735); cited from earlier work
[3] = test system: extracellular levels of dopamine, norepinephrine and serotonin in striatum and prefrontal cortex; settings: literature statement (Pliszka, 2005); cited from earlier work
[4] = test system: extracellular levels of dopamine, norepinephrine and serotonin in striatum and prefrontal cortex; assay: In vivo microdialysis in awake, freely moving rats; parameters: species or system rat (male Sprague-Dawley); settings: mirtazapine 10 mg/kg s.c. (FIGS. 21 and 22)

Compound | melting point [°C] | DOPAC %-increase [1] | other results
CN1CCC(c2ccc(F)c(F)c2)C1 (stereo not drawn) (as salt: fumaric acid salt) [Example 4, 3-(3,4-DIFLUOROPHENYL)-1-METHYLPYRROLIDINE] | 140 to 142 |  | 
Clc1ccc(C2CCNC2)cc1Cl (stereo not drawn) (as salt: hydrochloric acid salt) [Example 1, 3-(3,4-DICHLOROPHENYL)PYRROLIDINE] | 136 to 137 |  | 
Fc1ccc(C2CCNC2)cc1F (stereo not drawn) (as salt: hydrochloric acid salt) [Example 5, 3-(3,4-DIFLUOROPHENYL)PYRROLIDINE] | 139 to 140 |  | 
Fc1ccc(C2CCNC2)c(F)c1 (stereo not drawn) (as salt: oxalic acid salt) [Example 2, 3-(2,4-DIFLUOROPHENYL)PYRROLIDINE] | 116 |  | 
Fc1cc(F)cc(C2CCNC2)c1 (stereo not drawn) (as salt: oxalic acid salt) [Example 3, 3-(3,5-DIFLUOROPHENYL)PYRROLIDINE] | 199 to 200 |  | 
Clc1ccc(C2CCNC2)cc1Cl (stereo not drawn) [Example 1, 3-(3,4-DICHLOROPHENYL)PYRROLIDINE] |  | −45% | 
Fc1ccc(C2CCNC2)c(F)c1 (stereo not drawn) [Example 2, 3-(2,4-DIFLUOROPHENYL)PYRROLIDINE] |  | −22% | 
Fc1cc(F)cc(C2CCNC2)c1 (stereo not drawn) [Example 3, 3-(3,5-DIFLUOROPHENYL)PYRROLIDINE] |  | −19% | 
CN1CCC(c2ccc(F)c(F)c2)C1 (stereo not drawn) [Example 4, 3-(3,4-DIFLUOROPHENYL)-1-METHYLPYRROLIDINE] |  | −20% | 
Fc1ccc(C2CCNC2)cc1F (stereo not drawn) [Example 5, 3-(3,4-DIFLUOROPHENYL)PYRROLIDINE] |  | −37% | 
CCCN1CCC(c2ccc(Cl)c(C(F)(F)F)c2)CC1 [Example 9 of WO01/46146, 4-(4-chloro-3-trifluoromethyl-phenyl)-1-propyl-piperidine, reference compound] |  | +94% | 
CCCN1CCC[C@@H](c2cccc(S(C)(=O)=O)c2)C1 [Example 16 of ref. 1] |  |  | DOPAC %-increase [2]: +150^2%
CCCN1CCC(c2cc(F)cc(C(F)(F)F)c2)CC1 [Example 44 of WO01/46146, 4-(3-fluoro-5-trifluoromethyl-phenyl)-1-propyl-piperidine, reference compound] |  | +239% | 
CNCC[C@@H](Oc1ccccc1C)c1ccccc1 [atomoxetine] |  |  | cortical DA and NE levels [3]: regionally selective increases in cortical DA and NE
CN1CCN2c3ncccc3Cc3ccccc3C2C1 (stereo not drawn) [mirtazapine] |  |  | extracellular norepinephrine and dopamine, cortex versus striatum [4]: increase predominantly extracellular norepinephrine and dopamine in the cortex

From US20100197760A1, “DISUBSTITUTED PHENYLPYRROLIDINES AS MODULATORS OF CORTICAL CATECHOLAMINERGIC NEUROTRANSMISSION” (NSAB, FILIAL AF NEUROSEARCH SWEDEN AB, SVERIGE, priority 2007, published 2010)
